Measured values published in ChEMBL document CHEMBL4420070, “6-6 Fused Bicyclic Heteroaryl Compounds and their Use as LATS Inhibitors” (2018).
Values belong to the compound of their own block, whether it stands above or below them. Calls of active or inactive are those of the source. No cut-off for these calls is given here.

Assays:
[1] = biological target: T1, Serine/threonine-protein kinase LATS (Homo sapiens) (UniProt Q9NRM7+O95835); assay: Inhibition of LATS in human limbal epithelial cells assessed as induction of limbal stem cell expansion by measuring expansion factor ratio at 10 uM measured after 2 weeks by p63alpha expression detection based immunohistochemistry relative to control; design: scale not given: the % may be the effect or the level left
[2] = biological target: T1, Serine/threonine-protein kinase LATS (Homo sapiens); assay: Inhibition of LATS in human corneal endothelium cells assessed as induction of cell expansion by measuring cell density at 10 uM by Sytox orange dye based epifluorescence microscopy
[3] = biological target: T2, Serine/threonine-protein kinase LATS1 (Homo sapiens, UniProt O95835); assay: Inhibition of human LATS1 kinase domain (589 to 1130 amino acids) incubated for 30 mins by HTRF assay
T2 sequence (O95835 whole entry): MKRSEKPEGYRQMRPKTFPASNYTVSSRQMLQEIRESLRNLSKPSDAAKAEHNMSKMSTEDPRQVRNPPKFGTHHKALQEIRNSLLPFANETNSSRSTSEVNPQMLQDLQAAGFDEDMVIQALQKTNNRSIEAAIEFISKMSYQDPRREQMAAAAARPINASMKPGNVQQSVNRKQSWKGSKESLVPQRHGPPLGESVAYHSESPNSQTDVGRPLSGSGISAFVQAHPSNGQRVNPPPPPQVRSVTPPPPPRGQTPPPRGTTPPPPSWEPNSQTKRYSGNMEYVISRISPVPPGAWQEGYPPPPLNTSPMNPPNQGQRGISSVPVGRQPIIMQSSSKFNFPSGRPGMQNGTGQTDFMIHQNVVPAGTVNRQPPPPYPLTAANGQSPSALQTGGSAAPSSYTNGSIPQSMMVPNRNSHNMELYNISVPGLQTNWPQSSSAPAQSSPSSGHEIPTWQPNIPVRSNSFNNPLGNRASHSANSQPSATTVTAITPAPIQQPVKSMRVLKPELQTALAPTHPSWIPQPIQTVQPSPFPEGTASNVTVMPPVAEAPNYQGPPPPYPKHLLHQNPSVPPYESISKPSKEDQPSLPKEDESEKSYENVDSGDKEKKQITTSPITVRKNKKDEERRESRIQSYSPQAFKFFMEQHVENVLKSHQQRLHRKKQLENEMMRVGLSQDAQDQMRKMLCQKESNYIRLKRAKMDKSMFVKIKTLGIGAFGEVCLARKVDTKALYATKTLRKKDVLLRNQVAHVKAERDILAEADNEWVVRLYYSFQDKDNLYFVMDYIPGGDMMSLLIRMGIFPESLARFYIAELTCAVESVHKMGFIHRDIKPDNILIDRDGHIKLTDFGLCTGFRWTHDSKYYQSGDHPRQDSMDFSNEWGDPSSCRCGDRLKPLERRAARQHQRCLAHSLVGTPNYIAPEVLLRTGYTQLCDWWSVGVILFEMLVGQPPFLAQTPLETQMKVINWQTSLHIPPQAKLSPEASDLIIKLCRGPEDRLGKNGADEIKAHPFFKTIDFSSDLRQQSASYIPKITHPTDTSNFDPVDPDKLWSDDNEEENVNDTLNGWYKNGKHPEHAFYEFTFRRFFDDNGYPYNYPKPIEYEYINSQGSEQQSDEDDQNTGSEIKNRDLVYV

[4] = biological target: T1, Serine/threonine-protein kinase LATS (Homo sapiens); assay: Inhibition of LATS in human corneal endothelium cells assessed as induction of normal corneal endothelial cell morphology at 10 uM incubated for 10 days by immunofluorescence staining based confocal microscopy
[5] = biological target: T1, Serine/threonine-protein kinase LATS (Homo sapiens); assay: Inhibition of LATS in human limbal epithelial cells assessed as induction of limbal stem cell expansion by measuring p63alpha expression at 10 uM measured after 2 weeks by immunohistochemistry; type: cell-based
[6] = biological target: T1, Serine/threonine-protein kinase LATS (Homo sapiens); assay: Inhibition of LATS in human limbal epithelial cells assessed as reduction in YAP phosphorylation level at 10 uM incubated for 1 hr by Western blot analysis; type: cell-based; conditions: Epithelial cell
[7] = biological target: T1, Serine/threonine-protein kinase LATS (Homo sapiens); assay: Inhibition of LATS in human corneal endothelium cells assessed as increase in YAP level at 10 uM incubated for 24 hrs by immunohistochemistry
[8] = biological target: T1, Serine/threonine-protein kinase LATS (Homo sapiens); assay: Inhibition of LATS in human limbal epithelial cells assessed as induction of limbal stem cell expansion marker expression by measuring deltaN-p63-alphabetagamma protein expression at 10 uM incubated for 8 to 10 days by immunohistochemistry; type: cell-based
[9] = biological target: T1, Serine/threonine-protein kinase LATS (Homo sapiens); assay: Inhibition of LATS in human limbal epithelial cells assessed as increase in YAP level at 10 uM incubated for 24 hrs by immunostaining based assay; conditions: Epithelial cell
[10] = biological target: T1, Serine/threonine-protein kinase LATS (Homo sapiens); assay: Inhibition of LATS in human corneal endothelium cells assessed as induction of tight junctions formation by measuring ZO1 expression at 10 uM incubated for 10 days by immunofluorescence staining based confocal microscopy
[11] = biological target: T1, Serine/threonine-protein kinase LATS (Homo sapiens); assay: Inhibition of LATS in human corneal endothelium cells assessed as induction of cell proliferation measured every 3 hrs for 10 days
[12] = biological target: T1, Serine/threonine-protein kinase LATS (Homo sapiens); assay: Inhibition of LATS in human limbal epithelial cells assessed as induction of limbal stem cell expansion marker expression by measuring C/EBPdelta protein expression at 10 uM incubated for 8 to 10 days by immunohistochemistry; type: cell-based
[13] = biological target: T1, Serine/threonine-protein kinase LATS (Homo sapiens); assay: Inhibition of LATS in human corneal endothelium cells assessed as induction of cell expansion by measuring Collagen 8a2 gene expression at 10 uM incubated for 10 days by RT-PCR analysis
[14] = biological target: T1, Serine/threonine-protein kinase LATS (Homo sapiens); assay: Inhibition of LATS in human limbal epithelial cells assessed as induction of limbal stem cell expansion marker expression by measuring ABCG2 protein expression at 10 uM incubated for 8 to 10 days by immunohistochemistry; type: cell-based
[15] = biological target: T1, Serine/threonine-protein kinase LATS (Homo sapiens); assay: Inhibition of LATS in human corneal endothelium cells assessed as reduction in YAP phosphorylation at 10 uM incubated for 1 hr by Western blot analysis
[16] = biological target: T1, Serine/threonine-protein kinase LATS (Homo sapiens); assay: Inhibition of LATS in human corneal endothelium cells assessed as induction of cell expansion by measuring SLC4A11 gene expression at 10 uM incubated for 10 days by RT-PCR analysis
[17] = biological target: T1, Serine/threonine-protein kinase LATS (Homo sapiens); assay: Inhibition of LATS in human corneal endothelium cells assessed as induction of cell expansion by measuring Collagen 8a2 protein expression at 10 uM incubated for 10 days by immunohistochemistry
[18] = biological target: T1, Serine/threonine-protein kinase LATS (Homo sapiens); assay: Inhibition of LATS in human limbal epithelial cells assessed as induction of cell differentiation into corneal epithelial cells by measuring keratin-12 expression at 10 uM incubated for 8 to 10 days followed by medium change to DMEM medium without serum and compound for further incubation for 4 to 8 days by confocal microscopy; type: cell-based
[19] = biological target: T1, Serine/threonine-protein kinase LATS (Homo sapiens); assay: Inhibition of LATS in human corneal endothelium cells assessed as induction of cell expansion by measuring Na/K ATPase protein expression at 10 uM incubated for 10 days by immunohistochemistry
[20] = biological target: T1, Serine/threonine-protein kinase LATS (Homo sapiens); assay: Inhibition of LATS in human corneal endothelium cells assessed as induction of cell expansion by measuring AQP1 gene expression at 10 uM incubated for 10 days by RT-PCR analysis
[21] = Total drug level in cell pellets of human limbal stem cells by LC-MS analysis; type: ADME
[22] = Drug level in post wash cell pellets of human limbal stem cells by LC-MS analysis; type: ADME
Mus musculus [23] = assay: Inhibition of LATS in C57BL/6J mouse assessed as change in Ki67 protein expression level at 10 mg/kg, po administered as single dose measured after 24 hrs by immunohistochemistry analysis relative to control; type: functional
Mus musculus [24] = assay: Inhibition of LATS in C57BL/6J mouse assessed as change in CTGF mRNA expression level at 10 mg/kg, po administered as single dose measured after 2 hrs by qRT-PCR analysis relative to control; type: functional
Mus musculus [25] = assay: Inhibition of LATS in C57BL/6J mouse assessed as change in Cyr61 mRNA expression level at 10 mg/kg, po administered as single dose measured after 2 hrs by qRT-PCR analysis relative to control; type: functional
Oryctolagus cuniculus [26] = organism: Oryctolagus cuniculus; assay: (§1) Induction of tissue regeneration in NZA rabbit with limbal stem cell deficiency transplanted with 10 uM compound treated human limbal stem cells assessed as induction of limbal stem cell population expansion by human mitochondrial protein expression in corneal epithelium of transplanted eyes using compound attached to contact lens using GelMA polymerization and delivered into corneal surface; type: functional, organism-based
Oryctolagus cuniculus [27] = organism: Oryctolagus cuniculus; assay: as §1, with “measuring regeneration of keratin-12-positive” for “human mitochondrial protein expression in”, “epithelium” for “epithelium of transplanted eyes”; type: functional, organism-based
Mus musculus [28] = assay: Inhibition of LATS in C57BL/6 mouse with full-thickness excisional wounds assessed as up-regulation of YAP target gene Cyr61 expression at 0.2 to 2 mg/ml administered topically by RT-PCR analysis; type: functional, organism-based
Mus musculus [29] = assay: Induction of epidermal thickness in C57BL/6 mouse at 250 ug administered topically twice per day by micrography; type: functional, organism-based
Mus musculus [30] = assay: Induction of basal skin cell proliferation in C57BL/6 mouse at 250 ug administered topically twice per day by micrography; type: functional, organism-based

T1 sequence (Q9NRM7 whole entry, looked up, one chain of several): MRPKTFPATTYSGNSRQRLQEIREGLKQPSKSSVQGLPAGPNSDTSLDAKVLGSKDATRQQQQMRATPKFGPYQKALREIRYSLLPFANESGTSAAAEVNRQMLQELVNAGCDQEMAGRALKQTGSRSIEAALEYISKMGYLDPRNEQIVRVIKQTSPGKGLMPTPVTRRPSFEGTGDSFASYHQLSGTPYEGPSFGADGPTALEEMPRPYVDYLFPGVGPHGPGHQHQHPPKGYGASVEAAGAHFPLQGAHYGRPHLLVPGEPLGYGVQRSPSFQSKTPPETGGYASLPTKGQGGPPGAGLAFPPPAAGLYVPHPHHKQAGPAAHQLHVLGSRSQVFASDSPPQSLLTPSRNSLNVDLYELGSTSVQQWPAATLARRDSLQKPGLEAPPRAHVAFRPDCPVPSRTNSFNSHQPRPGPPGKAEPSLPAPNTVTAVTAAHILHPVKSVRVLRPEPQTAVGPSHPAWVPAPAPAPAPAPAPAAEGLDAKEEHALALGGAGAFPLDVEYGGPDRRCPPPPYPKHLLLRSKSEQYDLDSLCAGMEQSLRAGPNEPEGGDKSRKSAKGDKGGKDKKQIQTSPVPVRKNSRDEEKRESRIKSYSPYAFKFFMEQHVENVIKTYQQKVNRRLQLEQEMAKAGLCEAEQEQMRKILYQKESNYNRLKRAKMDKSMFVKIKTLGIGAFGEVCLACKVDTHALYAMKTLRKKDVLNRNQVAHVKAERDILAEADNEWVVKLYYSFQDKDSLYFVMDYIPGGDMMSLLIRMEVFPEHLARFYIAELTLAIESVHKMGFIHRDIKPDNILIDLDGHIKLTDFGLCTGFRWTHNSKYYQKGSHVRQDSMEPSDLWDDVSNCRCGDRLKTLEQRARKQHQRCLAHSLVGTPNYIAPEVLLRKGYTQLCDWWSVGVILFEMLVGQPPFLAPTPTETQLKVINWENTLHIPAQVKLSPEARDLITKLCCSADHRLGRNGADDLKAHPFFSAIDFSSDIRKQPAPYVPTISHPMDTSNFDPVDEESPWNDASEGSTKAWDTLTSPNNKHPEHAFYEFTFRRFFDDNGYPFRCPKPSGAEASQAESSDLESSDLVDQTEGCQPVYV

SMILES: O[C@H]1CCC[C@@H]1Nc1nc(-c2ccncc2)nc2cnccc12
Activity [1]: 57 to 97% | Activity [2]: 25 /mm2

SMILES: CC(C)Nc1nc(-c2ccncc2)nc2cnccc12
Activity [1]: 57 to 97% | Activity [2]: 3380 /mm2

SMILES: CC(C)(O)CC(C)(C)Nc1nc(-c2ccncc2)nc2cnccc12
inhibition [4]: Active | inhibition [5]: Active | inhibition [6]: Active | inhibition [7]: Active | inhibition [8]: Active | inhibition [9]: Active | inhibition [10]: Active | inhibition [11]: Active | inhibition [12]: Active | inhibition [13]: Active | inhibition [14]: Active | inhibition [15]: Active | inhibition [16]: Active | Activity [1]: 57 to 97% | Activity [2]: 3870 /mm2 | inhibition [17]: Active | inhibition [18]: Active | inhibition [19]: Active | inhibition [20]: Active

SMILES: CC(C)(C)Nc1cc(-c2ccncc2)nc2cnccc12
Drug uptake [21]: 83 pg | Drug uptake [22]: 0.315 to 11 nM | fold change (FC) (Mus musculus [23]): 3.1 | fold change (FC) (Mus musculus [24]): 2.5 | fold change (FC) (Mus musculus [25]): 3.9 | Activity [1]: 57 to 97% | Activity [2]: 4310 /mm2 | inhibition [18]: Active

SMILES: CC(C)(O)COCC(C)(C)Nc1nc(-c2ccncc2)nc2cnccc12
Drug uptake [21]: 178 pg | Drug uptake [22]: 7.32 to 14.4 nM | Activity (Oryctolagus cuniculus [26]): Active | Activity (Oryctolagus cuniculus [27]): Active

Further lines, with some results ahead:

Activity [1]: 57 to 97%
SMILES: CCCNc1nc(-c2c[nH]nc2C(F)(F)F)nc2cnccc12
Activity [2]: 1890 /mm2

IC50 [3]: 7 nM
SMILES: c1cc(-c2cc(NC3CCCC3)c3ccncc3n2)ccn1

IC50 [3]: 20 nM
SMILES: CC1(C)CC(O)CCN1c1cc(-c2ccncc2Cl)nc2cnccc12 (configuration not stated)

Activity [1]: 57 to 97%
SMILES: c1cc(-c2nc(NC3CCCC3)c3ccncc3n2)ccn1
Activity [2]: 1700 /mm2

inhibition [5]: Active | inhibition [6]: Active | inhibition [7]: Active | inhibition [8]: Active | inhibition [9]: Active | inhibition [11]: Active | inhibition [12]: Active | inhibition [14]: Active | inhibition [15]: Active | Activity [1]: 57 to 97%
SMILES: Cc1n[nH]cc1-c1nc(NC2(C)CC2)c2ccncc2n1
inhibition (Mus musculus [28]): Dose-dependent effect | Activity (Mus musculus [29]): Active | Activity (Mus musculus [30]): Active | Activity [2]: 2030 /mm2

Activity [1]: 57 to 97%
SMILES: CCCNc1nc(-c2ccncc2)nc2cnccc12
Activity [2]: 3270 /mm2
